Positions of bridges follow the written chain, without caps; N, C: chain ends. Non-standard residues stand in square brackets, D forms with d. Residues, ends and D or L forms follow the SMILES beside them. Phe(3-Me) = Cc1cccc(C[C@H](N)C(=O)O)c1; Cit = NC(=O)NCCC[C@H](N)C(=O)O; Ahp(2) = CCCCC[C@H](N)C(=O)O; NMeNle = CCCC[C@H](NC)C(=O)O; NHexGly = CCCCCCNCC(=O)O; Nle = CCCC[C@H](N)C(=O)O; Orn = NCCC[C@H](N)C(=O)O
Molecular target: T1, mouse VISTA (mVISTA) (Mus musculus, UniProt Q9D659)
T1 construct: expressed in transfected cells; host or cells: Human embryonic kidney 293T cells
T1 sequence (Q9D659 33-308): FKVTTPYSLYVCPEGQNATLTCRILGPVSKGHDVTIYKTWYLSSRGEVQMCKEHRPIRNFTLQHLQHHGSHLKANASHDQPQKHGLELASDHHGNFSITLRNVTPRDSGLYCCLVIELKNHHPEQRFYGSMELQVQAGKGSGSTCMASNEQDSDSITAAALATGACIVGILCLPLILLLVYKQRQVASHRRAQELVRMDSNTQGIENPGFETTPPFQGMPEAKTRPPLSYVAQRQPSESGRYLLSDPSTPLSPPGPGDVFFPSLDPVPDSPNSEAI
Assay: Cell-Based Binding High-Content Assay For mVISTA (HC CBA mVISTA)
Settings: the 19th table, scaffold drawing 22; read-out: HC CBA mVISTA IC50
Outline: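 293T cells expressing mouse VISTA, with compounds added either after seeding ("no wash") or before seeding and then washed out after 1 h. Biotinylated peptide 2 nM for 30 min at room temperature, then detection with Alexa 647–streptavidin. After fixation with Hoechst stain, plates were high-content imaged; IC50 from four-parameter logistic fit.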

SMILES | IC50
CCCCCCN1CC(=O)N[C@@H](Cc2ccc(O)cc2)C(=O)N[C@@H](CCCC)C(=O)NCC(=O)N[C@@H](CCCNC(=N)N)C(=O)N[C@@H](CC(C)C)C(=O)N[C@@H](CCCCC)C(=O)N2CCC[C@H]2C(=O)N[C@@H](C(C)C)C(=O)N[C@@H](CC(=O)O)C(=O)N[C@H](C(=O)N[C@@H](CO)C(=O)O)CSCC(=O)N[C@@H](Cc2cccc(C)c2)C(=O)N[C@@H](Cc2c[nH]c3ccccc23)C(=O)N[C@@H](CC(=O)O)C1=O [compound 1425] ({CH2CO}-[Phe(3-Me)]WD[NHexGly]Y[Nle]GRL[Ahp(2)]PVDCS-OH; thioether N-14) | 13.4 nM
CCCCCCN1CC(=O)N[C@@H](Cc2ccc(O)cc2)C(=O)N[C@@H](CC(C)C)C(=O)N[C@@H](CC(N)=O)C(=O)N[C@@H](CCCNC(=N)N)C(=O)N[C@@H](CC(C)C)C(=O)N[C@@H](CCCCC)C(=O)N2CCC[C@H]2C(=O)N[C@@H](C(C)C)C(=O)N[C@@H](C(C)C)C(=O)N[C@H](C(=O)N[C@@H](CO)C(=O)O)CSCC(=O)N[C@@H](Cc2cccc(C)c2)C(=O)N[C@@H](Cc2c[nH]c3ccccc23)C(=O)N[C@@H](CC(=O)O)C1=O [compound 1426] ({CH2CO}-[Phe(3-Me)]WD[NHexGly]YLNRL[Ahp(2)]PVVCS-OH; thioether N-14) | 4.1 nM
CCCCCCN1CC(=O)N[C@@H](Cc2ccc(O)cc2)C(=O)N[C@@H](CCCC)C(=O)N[C@@H](CC(=O)O)C(=O)N[C@@H](CCCN)C(=O)N[C@@H](CC(C)C)C(=O)N[C@@H](CCCCC)C(=O)N2CCC[C@H]2C(=O)N[C@@H](C(C)C)C(=O)N[C@@H](CC(=O)O)C(=O)N[C@H](C(=O)N[C@@H](CO)C(N)=O)CSCC(=O)N[C@@H](Cc2cccc(C)c2)C(=O)N[C@@H](Cc2c[nH]c3ccccc23)C(=O)N[C@@H](CC(=O)O)C1=O [compound 1427] ({CH2CO}-[Phe(3-Me)]WD[NHexGly]Y[Nle]D[Orn]L[Ahp(2)]PVDCS-NH2; thioether N-14) | 9.4 nM
CCCCCCN1CC(=O)N[C@@H](Cc2ccc(O)cc2)C(=O)N[C@@H](CCCC)C(=O)N[C@@H](CC(=O)O)C(=O)N[C@@H](CCCNC(=N)N)C(=O)N[C@@H](CC(C)C)C(=O)N[C@@H](CCCCC)C(=O)N2CCC[C@H]2C(=O)N[C@@H](C(C)C)C(=O)N[C@@H](CC(=O)O)C(=O)N[C@H](C(=O)N[C@@H](CO)C(N)=O)CSCC(=O)N[C@@H](Cc2cccc(C)c2)C(=O)N[C@@H](Cc2c[nH]c3ccccc23)C(=O)N[C@@H](CC(=O)O)C1=O [compound 1428] ({CH2CO}-[Phe(3-Me)]WD[NHexGly]Y[Nle]DRL[Ahp(2)]PVDCS-NH2; thioether N-14) | 13.6 nM
CCCCCCN1CC(=O)N[C@@H](Cc2ccc(O)cc2)C(=O)N[C@@H](CCCC)C(=O)N[C@@H](CC(=O)O)C(=O)N[C@@H](CCCN)C(=O)N[C@@H](CC(C)C)C(=O)N[C@@H](CCCCC)C(=O)N2CCC[C@H]2C(=O)N[C@@H](C(C)C)C(=O)N[C@@H](CC(=O)O)C(=O)N[C@H](C(=O)N[C@@H](CC(=O)O)C(N)=O)CSCC(=O)N[C@@H](Cc2cccc(C)c2)C(=O)N[C@@H](Cc2ccc(O)cc2)C(=O)N[C@@H](CC(=O)O)C1=O [compound 1430] ({CH2CO}-[Phe(3-Me)]YD[NHexGly]Y[Nle]D[Orn]L[Ahp(2)]PVDCD-NH2; thioether N-14) | 6.2 nM
CCCCCCN1CC(=O)N[C@@H](Cc2ccc(O)cc2)C(=O)N[C@@H](CCCC)C(=O)NCC(=O)N[C@@H](CCCNC(=N)N)C(=O)N[C@@H](CC(C)C)C(=O)N[C@@H](CCCCC)C(=O)N2CCC[C@H]2C(=O)N[C@@H](C(C)C)C(=O)N[C@@H](CC(=O)O)C(=O)N[C@H](C(=O)NCC(=O)O)CSCC(=O)N[C@@H](Cc2cccc(C)c2)C(=O)N[C@@H](Cc2ccc(O)cc2)C(=O)N[C@@H](CC(=O)O)C1=O [compound 1431] ({CH2CO}-[Phe(3-Me)]YD[NHexGly]Y[Nle]GRL[Ahp(2)]PVDCG-OH; thioether N-14) | 2.5 nM
CCCCCCN1CC(=O)N[C@@H](Cc2ccc(O)cc2)C(=O)N[C@@H](CC(C)C)C(=O)N[C@@H](CC(N)=O)C(=O)N[C@@H](CCCNC(=N)N)C(=O)N[C@@H](CC(C)C)C(=O)N[C@@H](CCCCC)C(=O)N2CCC[C@H]2C(=O)N[C@@H](C(C)C)C(=O)N[C@@H](C(C)C)C(=O)N[C@H](C(=O)NCC(=O)O)CSCC(=O)N[C@@H](Cc2cccc(C)c2)C(=O)N[C@@H](Cc2ccc(O)cc2)C(=O)N[C@@H](CC(=O)O)C1=O [compound 1432] ({CH2CO}-[Phe(3-Me)]YD[NHexGly]YLNRL[Ahp(2)]PVVCG-OH; thioether N-14) | 3 nM
CCCCCCN1CC(=O)N[C@@H](Cc2ccc(O)cc2)C(=O)N[C@@H](CC(C)C)C(=O)N[C@@H](CC(N)=O)C(=O)N[C@@H](CCCNC(=N)N)C(=O)N[C@@H](CC(C)C)C(=O)N[C@@H](CCCCC)C(=O)N2CCC[C@H]2C(=O)N[C@@H](C(C)C)C(=O)N[C@@H](C(C)C)C(=O)N[C@H](C(=O)N[C@@H](CO)C(=O)O)CSCC(=O)N[C@@H](Cc2cccc(C)c2)C(=O)N[C@@H](Cc2ccc(O)cc2)C(=O)N[C@@H](CC(=O)O)C1=O [compound 1434] ({CH2CO}-[Phe(3-Me)]YD[NHexGly]YLNRL[Ahp(2)]PVVCS-OH; thioether N-14) | 20.4 nM
CCCCCCN1CC(=O)N[C@@H](Cc2ccc(O)cc2)C(=O)N[C@@H](CCCC)C(=O)NCC(=O)N[C@@H](CCCNC(=N)N)C(=O)N[C@@H](CC(C)C)C(=O)N[C@@H](CCCCC)C(=O)N2CCC[C@H]2C(=O)N[C@@H](C(C)C)C(=O)N[C@@H](CC(=O)O)C(=O)N[C@H](C(=O)N[C@@H](CO)C(=O)O)CSCC(=O)N[C@@H](Cc2cccc(C)c2)C(=O)N[C@@H](Cc2ccc(O)cc2)C(=O)N[C@@H](CC(=O)O)C1=O [compound 1435] ({CH2CO}-[Phe(3-Me)]YD[NHexGly]Y[Nle]GRL[Ahp(2)]PVDCS-OH; thioether N-14) | 9.4 nM
CCCCCCN1CC(=O)N[C@@H](Cc2ccc(O)cc2)C(=O)N[C@@H](CCCC)C(=O)N[C@@H](CC(=O)O)C(=O)N[C@@H](CCCN)C(=O)N[C@@H](CC(C)C)C(=O)N[C@@H](CCCCC)C(=O)N2CCC[C@H]2C(=O)N[C@@H](C(C)C)C(=O)N[C@@H](CC(=O)O)C(=O)N[C@H](C(=O)N[C@@H](CO)C(N)=O)CSCC(=O)N[C@@H](Cc2cccc(C)c2)C(=O)N[C@@H](Cc2ccc(O)cc2)C(=O)N[C@@H](CC(=O)O)C1=O [compound 1436] ({CH2CO}-[Phe(3-Me)]YD[NHexGly]Y[Nle]D[Orn]L[Ahp(2)]PVDCS-NH2; thioether N-14) | 10.6 nM
CCCCCCN1CC(=O)N[C@@H](Cc2ccc(O)cc2)C(=O)N[C@@H](CCCC)C(=O)N[C@@H](CC(=O)O)C(=O)N[C@@H](CCCNC(=N)N)C(=O)N[C@@H](CC(C)C)C(=O)N[C@@H](CCCCC)C(=O)N2CCC[C@H]2C(=O)N[C@@H](C(C)C)C(=O)N[C@@H](CC(=O)O)C(=O)N[C@H](C(=O)N[C@@H](CO)C(N)=O)CSCC(=O)N[C@@H](Cc2cccc(C)c2)C(=O)N[C@@H](Cc2ccc(O)cc2)C(=O)N[C@@H](CC(=O)O)C1=O [compound 1437] ({CH2CO}-[Phe(3-Me)]YD[NHexGly]Y[Nle]DRL[Ahp(2)]PVDCS-NH2; thioether N-14) | 18.2 nM
CCCCCCN1CC(=O)N[C@@H](Cc2ccc(O)cc2)C(=O)N[C@@H](CCCC)C(=O)N[C@@H](CC(=O)O)C(=O)N[C@@H](CCCNC(N)=O)C(=O)N(C)[C@@H](CCCC)C(=O)N[C@@H](CCCCC)C(=O)N2CCC[C@H]2C(=O)N[C@@H](C(C)C)C(=O)N[C@@H](CC(=O)O)C(=O)N[C@H](C(=O)N[C@@H](CC(=O)O)C(N)=O)CSCC(=O)N[C@@H](Cc2cccc(C)c2)C(=O)N[C@@H](Cc2c[nH]c3ccccc23)C(=O)N[C@@H](CC(=O)O)C1=O [compound 1438] ({CH2CO}-[Phe(3-Me)]WD[NHexGly]Y[Nle]D[Cit][NMeNle][Ahp(2)]PVDCD-NH2; thioether N-14) | 22.4 nM
CCCCCCN1CC(=O)N[C@@H](Cc2ccc(O)cc2)C(=O)N[C@@H](CCCC)C(=O)N[C@@H](CC(=O)O)C(=O)N[C@@H](CCCN)C(=O)N(C)[C@@H](CCCC)C(=O)N[C@@H](CCCCC)C(=O)N2CCC[C@H]2C(=O)N[C@@H](C(C)C)C(=O)N[C@@H](CC(=O)O)C(=O)N[C@H](C(=O)N[C@@H](CC(=O)O)C(N)=O)CSCC(=O)N[C@@H](Cc2cccc(C)c2)C(=O)N[C@@H](Cc2c[nH]c3ccccc23)C(=O)N[C@@H](CC(=O)O)C1=O [compound 1439] ({CH2CO}-[Phe(3-Me)]WD[NHexGly]Y[Nle]D[Orn][NMeNle][Ahp(2)]PVDCD-NH2; thioether N-14) | 9.3 nM
CCCCCCN1CC(=O)N[C@@H](Cc2ccc(O)cc2)C(=O)N[C@@H](CCCC)C(=O)N[C@@H](CC(=O)O)C(=O)N[C@@H](CCCNC(=N)N)C(=O)N(C)[C@@H](CCCC)C(=O)N[C@@H](CCCCC)C(=O)N2CCC[C@H]2C(=O)N[C@@H](C(C)C)C(=O)N[C@@H](CC(=O)O)C(=O)N[C@H](C(=O)N[C@@H](CC(=O)O)C(N)=O)CSCC(=O)N[C@@H](Cc2cccc(C)c2)C(=O)N[C@@H](Cc2c[nH]c3ccccc23)C(=O)N[C@@H](CC(=O)O)C1=O [compound 1440] ({CH2CO}-[Phe(3-Me)]WD[NHexGly]Y[Nle]DR[NMeNle][Ahp(2)]PVDCD-NH2; thioether N-14) | 14.8 nM
CCCCCCN1CC(=O)N[C@@H](Cc2ccc(O)cc2)C(=O)N[C@@H](CCCCC)C(=O)N[C@@H](CC(N)=O)C(=O)N[C@@H](CCCNC(=N)N)C(=O)N(C)[C@@H](CCCC)C(=O)N[C@@H](CCCCC)C(=O)N2CCC[C@H]2C(=O)N[C@@H](C(C)C)C(=O)N[C@@H](CC(=O)O)C(=O)N[C@H](C(=O)NCC(=O)O)CSCC(=O)N[C@@H](Cc2cccc(C)c2)C(=O)N[C@@H](Cc2c[nH]c3ccccc23)C(=O)N[C@@H](CC(=O)O)C1=O [compound 1441] ({CH2CO}-[Phe(3-Me)]WD[NHexGly]Y[Ahp(2)]NR[NMeNle][Ahp(2)]PVDCG-OH; thioether N-14) | 10.2 nM

— patent US20240218022A1, “ANTI-VISTA MACROCYCLIC PEPTIDES AND COMPOSITIONS” (BRISTOL-MYERS SQUIBB COMPANY, priority 2022, published 2024)
